Reference: article PMC10064330, “Reversible Dual-Covalent Molecular Locking of the 14-3-3/ERRγ Protein–Protein Interaction as a Molecular Glue Drug Discovery Approach” (Journal of the American Chemical Society, 2023)

Biological target: T1, 14-3-3γ/ERRγ complex (Homo sapiens, UniProt P61981+P62508)
T1 construct: made in house; host or cells: E. coli NiCo21 (DE3)
Assay: Differential scanning fluorimetry (DSF)
Format: binding
Settings: 5 μM 14-3-3γ, 200 μM compound, relative to DMSO; for ΔTm at 200 µM: read-out: increase in 14-3-3γ melting temperature (ΔTm)
Method: We screened the apo-14-3-3γ, the binary 14-3-3γ/ERRγ (10 eq.) complex, and the ternary complex of 14-3-3γ, the ERRγ phosphopeptide, and compounds 1 and 3–10 (Figure 2c and Figures S4 and S5). The DSF data corroborated the enhanced stabilization observed in the FA data, with molecular locks 5 and 10 eliciting 14-3-3γ melting temperature increases of 4.7 ± 0.2 and 6.0 ± 0.3 °C, respectively (Figure 2c).
Figure S4. Differential Scanning Fluorimetry. Raw melting curves (a-c, g-i) and derivatives of these melting curves (d-f, j-l) of 14-3-3γ (5 µM) with ERRγ (25 µM) incubated with either DMSO (black) or 200 µM compound 1-10.
(1 picture or pasted object on this page, not shown here)
Figure S5. Differential Scanning Fluorimetry. Raw melting curves (a-c) and derivatives of these melting curves (d-f) of 14-3-3γ (5 µM) with ERRγ (25 µM) incubated with either DMSO (black) or 200 µM compound 1-10. (g) […]
Differential Scanning Fluorimetry (DSF)
Different Scanning Fluorimetry (DSF) assays were performed using 40 µL samples containing 5 µM 14-3-3γ, 50 µM ERRγ pS179 9-mer peptide, 200 µM compound (or 1% DMSO) and 5x ProteoOrange (Lumiprobe, 5000x stock in DMSO) in 10 mM Hepes, 150 mM NaCl, 50 µM TCEP (pH 8.0). The samples were heated from 35 °C to 79 °C at a rate of 0.3 °C per 15 s in a CFX96 Touch Real-Time PCR Detection System (Bio-Rad). Fluorescence intensity was determined using excitation 470/40 nm and emission 570/20 nm filters. Based on these melting curves, the negative derivative melting curve is obtained from which the melting temperature Tm was determined. ΔTm values represent the differences in melting temperature relative to the DMSO control. All described melting temperatures are based on three independent experiments from which the average and standard deviations were determined using excel. […]
Washing steps were repeated three more times. […] Fluorescence was measured using the Tecan SPARK plate reader at room temperature with an excitation wavelength of 485 nm and an emission wavelength of 535 nm. Furthermore, fluorescence anisotropy of each sample was measured using the Tecan Infinite F500 plate reader at room temperature (lex: 485 ± 20 nm; lem: 535 ± 25 nm; mirror: Dichroic 510; flashes: 20; integration time: 50 ms; settle time: 0 ms; gain: 50; and Z-position: calculated from well) to determine whether all 14 -3-3γ was captured by the magnetic beads (should results in low anisotropy values in samp les after capturing in comparison to samples […]

T1 sequence (P61981 whole entry, other chains not shown): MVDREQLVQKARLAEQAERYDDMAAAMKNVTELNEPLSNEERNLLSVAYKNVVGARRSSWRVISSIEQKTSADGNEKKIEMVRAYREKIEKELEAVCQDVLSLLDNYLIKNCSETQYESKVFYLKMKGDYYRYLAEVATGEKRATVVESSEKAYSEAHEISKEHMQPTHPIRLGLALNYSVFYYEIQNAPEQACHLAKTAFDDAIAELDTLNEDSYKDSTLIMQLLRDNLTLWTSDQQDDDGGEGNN

Compound | ΔTm at 200 µM (ERRγ 10 eq.) | other results
CN(C)CCSSCCN(C)C(=O)c1cccc(F)c1 [compound 1, reference compound] |  | decrease in melting temperature (ERRγ): 2.6 °C
CN(C)CCNC(=O)c1ccc(C=O)c(F)c1 [compound 3] |  | increase in 14-3-3γ melting temperature (ΔTm) (ERRγ 10 eq.): no significant change
CN(C)CCSSCCN(C)C(=O)c1ccc(C=O)c(F)c1 [compound 5] | 4.7 ± 0.2 °C | 
CN(C)CCSSCCN(C)C(=O)c1cc(Br)cc(C=O)c1 [compound 10] | 6 ± 0.3 °C | 
